In general, DC50 refers to the concentration at which degradation of the target reaches its halfway point. The low end stands for a more potent degrader, the high end for a less potent degrader. As usually defined, the pIC50 is the IC50 on a negative log10 scale, so that one unit is a factor of ten.

23 compounds from patent publication US20260216348A1, “IRAK DEGRADATION AGENT AND USE THEREOF” (Increland, priority 2023, published 2026) can be followed below.

pIC50: −log10 of the molar value.

The target of one assay is T1, IRAK4 (Homo sapiens, UniProt Q9NWZ3).
T1 construct: Effect of the Compounds on IRAK4 Protein Degradation in THP1 Cells; endogenous in cells; host or cells: THP-1 cells
T1 sequence (Q9NWZ3 1-460): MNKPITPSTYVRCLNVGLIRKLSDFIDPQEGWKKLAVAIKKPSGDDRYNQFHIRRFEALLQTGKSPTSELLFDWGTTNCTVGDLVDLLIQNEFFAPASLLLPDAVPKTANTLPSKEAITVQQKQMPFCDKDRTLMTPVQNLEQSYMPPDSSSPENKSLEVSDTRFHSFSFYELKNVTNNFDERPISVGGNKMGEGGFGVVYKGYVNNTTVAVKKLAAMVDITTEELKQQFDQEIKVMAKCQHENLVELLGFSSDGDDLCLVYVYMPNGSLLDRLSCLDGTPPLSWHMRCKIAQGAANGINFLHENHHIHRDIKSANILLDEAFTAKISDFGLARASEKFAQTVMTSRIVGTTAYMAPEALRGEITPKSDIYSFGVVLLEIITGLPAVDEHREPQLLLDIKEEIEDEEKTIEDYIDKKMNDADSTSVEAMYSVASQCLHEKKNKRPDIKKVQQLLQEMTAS
In words: IRAK4 protein degradation in THP1 cells (Western blot). The class given is cell-based. To be noted: THP-1 cells, 24 h. The method, then: THP-1 cells were seeded into a 96-well cell culture plate, with 2×10^5 cells and 90 μL of culture medium per well. The cell culture plate was cultured in an incubator with 5% CO2 at 37° C. overnight. The compound was dissolved in DMSO to prepare a stock solution, which was serially diluted into a series of working solutions with a 5-fold concentration gradient using the culture medium and then added to the aforementioned 96-well plate at 10 μL per well. The cell culture plate was further incubated for 24 h in a 5% CO2 incubator at 37° C. After incubation, the 96-well plate was centrifuged and the supernatant was discarded, followed by adding 40 μL of cell lysis buffer containing […]/phosphatase inhibitors to each well for sufficient lysis on an ice bath. Protein quantification was performed using the BCA protein quantification kit, followed by the preparation of Western blot samples. […] After electrophoresis, protein transfer was performed using a PVDF membrane under ice bath conditions for 1 h. After the transfer was completed, the PVDF membrane was blocked with gentle shaking in 5% skim milk at room temperature for 1 h. After blocking, the PVDF membrane was incubated with the primary antibody overnight with gentle shaking at 4° C. The PVDF membrane was washed 3 times with TBST, then the secondary antibody was added and incubated for 1 h with gentle shaking at room temperature, followed by washing of the PVDF membrane with TBST for 3 times. After the washes were completed, the chemiluminescent substrate was added; the PVDF membrane was scanned using a Clinx imager, semi-quantitative analysis was performed with ImageJ software, and the DC50 was calculated using GraphPad Prism 8.0.
(In western blotting, separated proteins are transferred to a membrane and probed.)

Assay [1] relates to R848-induced IL-6 secretion in human peripheral blood mononuclear cells (PBMCs). The experiment in a line: Inhibition of R848-induced IL-6 secretion in human PBMCs (IL-6 ELISA). Format: cell-based. To be noted: PBMC, R848 2.5 μg/mL, 20 h pre-incubation, 24 h stimulation. How it is done:
This experiment was carried out in RPMI 1640 medium containing 10% FBS and 1% penicillin/streptomycin, with each of the compounds at an initial test concentration of 1 μM. The compound was dissolved in DMSO to prepare a stock solution, which was serially diluted into a series of working solutions with a 4-fold concentration gradient using the culture medium and then added to a 96-well plate at 10 μL per well. PBMCs (Batch No.: P122101102C; Milecell Biotechnology Inc.) were counted and diluted to a cell concentration of 1.25×10^6 cells/mL, and then added to the aforementioned compound-containing 96-well plate at 160 μL per well. The system was mixed well and incubated in a 5% CO2 incubator at 37° C. for 20 h. Then 10 μL of R848 (final concentration: 2.5 μg/mL) was added, and the culture was continued for 24 h in a 5% CO2 incubator at 37° C. After incubation, the 96-well plate was centrifuged at 2000 rpm for 4 min. The supernatant was collected and diluted 120-fold, then detected using an IL-6 ELISA kit. The OD450 values were read, and converted to IL-6 concentrations based on a standard curve.

Assay [2] concerns LPS/IL-1β-induced IL-6 secretion in human peripheral blood mononuclear cells (PBMCs). The experiment in a line: Inhibition of LPS/IL-1β-induced IL-6 secretion in human PBMCs (IL-6 ELISA). The class given is cell-based. To be noted: PBMC, LPS 10 ng/mL + IL-1β 20 ng/mL, 24 h pre-incubation, 20 h stimulation. In outline:
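IC50 values come from fitted curves of IL-6 levels, determined by ELISA (OD450, standard curve) in supernatants diluted 200-fold. Human PBMCs received 5-fold serial compound dilutions (top 1 μM) for 24 h before a 20 h challenge with final 10 ng/mL LPS and 20 ng/mL IL-1β, 37 °C, 5% CO2.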

A further assay concerns IMQ psoriasis model. The experiment in a line: IMQ (imiquimod)-induced psoriasis model. Format: in vivo, BALB/c mice. To be noted: 30 mg/kg, BID, Mean ± SD, n = 7. How it is done: Male BALB/c mice, aged 6-8 weeks, were randomly divided into 9 groups after 1 week of acclimatization: blank control group, imiquimod model group (IMQ group, corresponding to the model groups in FIGS. 1 and 2), clobetasol propionate cream group (CLO group), TYKI (BMS-986165) group, IRAK4 protein degrader KT-474 (from patent WO2020113233) group (100 mg/kg), and the compound of the present disclosure (at an appropriate dose), with 6-7 mice in each group. One day before modeling, the hair on the backs of the mice was removed with depilatory cream, with a depilated area of 2×2 cm^2. On the day of modeling, IMQ cream was used for modeling, and the corresponding drugs were administered intragastrically for treatment. The compound of the present disclosure (at an appropriate dose) was administered intragastrically once daily, and IMQ cream was applied to the hairless area on the back and left ear of mice 2 h after the first administration. […] The blank group and the IMQ group were administered with vehicle intragastrically twice daily (in the morning and evening), with an 8-h interval between the two intragastric administrations. At 2 h after the first intragastric administration, vaseline and IMQ cream were applied topically to the depilated back and ears of the mice, respectively. The dosage of IMQ cream administered to the depilated area on the back and the left ear was 80 mg and 10 mg, respectively, and the mice in each group were administered the cream for 5 consecutive days.
Reference was made to the Psoriasis Area and Severity Index (PASI) scoring criteria. The psoriasis, erythema, and thickness of skin lesions on the back were scored from 0 to 4 every morning from day 1 of modeling, with the scoring criteria as shown in Table 28. The 3 were added up to obtain a total score, i.e., a total PASI score. The ear thickness of the left ear of the mouse was measured using a digital vernier caliper three times every morning from day 1 of modeling, to obtain a mean value.

At IRAK4, `CN(C)c1cc2nn([C@H]3CC[C@H](CN4CC[C@@H](n5cc6ccc(N7CCC(=O)NC7=O)cc6n5)C4)CC3)cc2cc1NC(=O)c1cnn2cccnc12` [TM-198] showed a DC50 of 0.86 nM. In assay [1], this compound showed a negative logarithm of the IC50 (pIC50) of 7.68.

The compound `CN(C)c1cc2nn([C@H]3CC[C@H](CN4C[C@@H](F)[C@@H](n5cc6ccc(N7CCC(=O)NC7=O)cc6n5)C4)CC3)cc2cc1NC(=O)c1cnn2cccnc12` [TM-202] had a 50% degradation concentration (DC50) at IRAK4 of 0.95 nM. For the same compound, the negative-log IC50 (pIC50) in assay [1] is 8.44. At IRAK4, `CN(C)c1cc2nc([C@H]3CC[C@H](CN4CCC(n5cc6c(F)cc(N7CCC(=O)NC7=O)cc6n5)CC4)CC3)cn2cc1NC(=O)c1cnn2cccnc12` [TM-231] gave a DC50 of less than 1 nM. The pIC50 in assay [1] was 7.94. For `CN(C)c1cc2nn([C@H]3CC[C@H](CN4C[C@H](F)[C@@H](n5cc6cc(N7CCC(=O)NC7=O)ccc6n5)C4)CC3)cc2cc1NC(=O)c1cnn2cccnc12` [TM-207], the negative logarithm of the IC50 (pIC50) in assay [1] was 7.99; in assay [2] it was 7.39. As for `CN(C)c1cc2nn([C@H]3CC[C@H](CN4C[C@@H](F)[C@@H](n5cc6cc(N7CCC(=O)NC7=O)c(F)cc6n5)C4)CC3)cc2cc1NC(=O)c1cnn2cccnc12` [TM-239], the negative-log IC50 (pIC50) in assay [1] was 7.98; in assay [2], 8.14. The compound `CN(C)c1cc2nn([C@H]3CC[C@H](CN4CCC(n5cc6cc(NC7CCC(=O)NC7=O)ccc6n5)CC4)CC3)cc2cc1NC(=O)c1cnn2cccnc12` (some centres unmarked) [TM-196] registered a DC50 on IRAK4 of 2.84 nM. This compound also gave a pIC50 in assay [1] of 8.53. In the same order, the values of `CN(C)c1cc2nn([C@H]3CC[C@H](CN4CC[C@@H](n5cc6cc(C7CCC(=O)NC7=O)ccc6n5)[C@H](F)C4)CC3)cc2cc1NC(=O)c1cnn2cccnc12` (some centres unmarked) [TM-167] are 1.17 nM and 8.37. In the same order, the values of `CN(C)c1cc2nn([C@H]3CC[C@H](CN4C[C@@H](n5cc6ccc(N7CCC(=O)NC7=O)cc6n5)[C@@H](F)C4)CC3)cc2cc1NC(=O)c1cnn2cccnc12` [TM-199] are 0.87 nM and 7.59.

For `CN(C)c1cc2nn([C@H]3CC[C@H](CN4C[C@@H](n5cc6cc(C7CCC(=O)NC7=O)ccc6n5)[C@@H](F)C4)CC3)cc2cc1NC(=O)c1cnn2cccnc12` (some centres unmarked) [TM-234], the figures for the negative-log IC50 (pIC50) in assay [1] and in assay [2] were 7.84 and 8.09, respectively. For the compound `Cn1c(=O)n(C2CCC(=O)NC2=O)c2cccc(C#CCOC3CCN(C[C@H]4CC[C@H](n5cc(NC(=O)c6cnn7ccc(N8C[C@H]9C[C@@H]8CO9)nc67)c(C(F)F)n5)CC4)CC3)c21` (some centres unmarked) [Positive compound, reference compound], the pIC50 in assay [1] is 7.92; in assay [2], 8.52.

The compound `CN(C)c1cc2nn(C3CCC(CN4C[C@@H](F)[C@@H](n5cc6cc(N7CCC(=O)NC7=O)ccc6n5)C4)CC3)cc2cc1NC(=O)c1cnn2cccnc12` (some centres unmarked) [TM-206] gave a pIC50 in assay [1] of 8.26. Take “Deucravacitinib [TYKi, reference compound]”: the “PASI Score d 6” value in the assay on IMQ psoriasis model (Model 8.85 ± 1.66) is 4.32 ± 2.42. Also, the “ΔSkin Thickness Change (μm) d 6” value in the assay with IMQ psoriasis model (Model 80.95 ± 6.16) was determined as 53.57 ± 15.87 μm. For `CN(C)c1cc2nn([C@H]3CC[C@H](CN4C[C@@H](F)[C@H](n5cc6c(F)cc(C7CCC(=O)NC7=O)cc6n5)C4)CC3)cc2cc1NC(=O)c1cnn2cccnc12` (some centres unmarked) [TM-237], the results for the negative-log IC50 (pIC50) in assay [1] and in assay [2] were 7.60 and 7.78, respectively. For the compound `CN(C)c1cc2nn([C@H]3CC[C@H](CN4CCC(c5nc6cc(N7CCC(=O)NC7=O)ccc6o5)CC4)CC3)cc2cc1NC(=O)c1cnn2cccnc12` [TM-185], at IRAK4, the DC50 was 3.22 nM. The compound further showed a pIC50 in assay [1] of 8.05.

In the case of `CN(C)c1cc2nc([C@H]3CC[C@H](CN4C[C@@H](n5cc6cc(N7CCC(=O)NC7=O)ccc6n5)[C@@H](F)C4)CC3)cn2nc1NC(=O)c1cnn2cccnc12` [TM-229], the pIC50 in assay [1] is 7.71. On to `CN(C)c1cc2nn([C@H]3CC[C@H](CN4CC[C@H](n5cc6ccc(N7CCC(=O)NC7=O)cc6n5)C4)CC3)cc2cc1NC(=O)c1cnn2cccnc12` [TM-197], for which the half-maximal degradation concentration (DC50) on IRAK4 was 3.29 nM. For the same compound, the pIC50 in assay [1] is 8.31. Regarding `CN(C)c1cc2nc([C@H]3CC[C@H](CN4C[C@@H](n5cc6cc(N7CCC(=O)NC7=O)ccc6n5)[C@@H](F)C4)CC3)cn2cc1NC(=O)c1cnn2cccnc12` [TM-230], it took 1.42 nM to reach half-maximal degradation at IRAK4 (DC50). The negative-log IC50 (pIC50) in assay [1] is 8.16.

In the case of `CN(C)c1cc2nn([C@H]3CC[C@H](CN4C[C@H](F)[C@@H](n5cc6cc(C7CCC(=O)NC7=O)ccc6n5)C4)CC3)cc2cc1NC(=O)c1cnn2cccnc12` (some centres unmarked) [TM-243], the negative logarithm of the IC50 (pIC50) in assay [1] is 8.12; in assay [2], 8.40. On to `CN(C)c1cc2nn([C@H]3CC[C@H](CN4CC[C@H](c5nc6cc(N7CCC(=O)NC7=O)ccc6o5)C4)CC3)cc2cc1NC(=O)c1cnn2cccnc12` [TM-227], for which the pIC50 in assay [1] is 7.86.

`CN(C)c1cc2nn([C@H]3CC[C@H](CN4CCC[C@@H](n5cc6cc(N7CCC(=O)NC7=O)ccc6n5)C4)CC3)cc2cc1NC(=O)c1cnn2cccnc12` [TM-211] had a half-maximal degradation concentration (DC50) at IRAK4 of 3.23 nM. Further, the pIC50 in assay [1] is 8.76. The corresponding values for `CN(C)c1cc2nn(C3CCC(CN4C[C@@H](F)[C@H](n5cc6cc(N7CCC(=O)NC7=O)ccc6n5)C4)CC3)cc2cc1NC(=O)c1cnn2cccnc12` (some centres unmarked) [TM-208] are 3.77 nM and 7.97. On to `CN(C)c1cc2nn([C@H]3CC[C@H](CN4C[C@H](F)[C@@H](n5cc6c(F)cc(N7CCC(=O)NC7=O)cc6n5)C4)CC3)cc2cc1NC(=O)c1cnn2cccnc12` [TM-220], for which the pIC50 in assay [1] is 8.09. `CN(C)c1cc2nn([C@H]3CC[C@H](CN4C[C@@H](n5cc6c(F)cc(N7CCC(=O)NC7=O)cc6n5)[C@@H](F)C4)CC3)cc2cc1NC(=O)c1cnn2cccnc12` [TM-218] gave a pIC50 in assay [1] of 7.81.
